Data on 20 compounds can be found in patent publication US20250122222A1, “HETEROCYCLIC COMPOUNDS AND METHODS OF USE” (AMGEN INC., priority 2021, published 2025).

Experiment [1] has as its system Phosphorylation of ERK1/2 in AsPC-1 cells. The experiment can be described thus: Phospho-ERK1/2 MSD assay. It counts as cell-based. How it is done: Sixteen hours prior to compound treatment, AsPC-1 cells were seeded in 96-well cell culture plates at a density of 25,000 cells/well and incubated at 37° C., 5% CO2. A compound dose-response titration was diluted in growth media, added to appropriate wells of a cell culture plate, and then incubated at 37° C., 5% CO2 for 2 hours.

The target in experiment [2] is His-tagged KRAS G12D protein (Homo sapiens, UniProt P01116, G12D). In words: KRAS G12D TR-FRET assay (binding). The following applies: biotinylated KRPep-2d substrate, GDP in assay buffer. For orientation: Time-resolved FRET reads energy transfer from a long-lived donor to a nearby acceptor.
Experimental: The plate was incubated for 30 minutes at room temperature. Biotinylated KRPep-2d substrate (Amgen) was diluted to 20 nM in Assay Buffer and 2 L was added to all wells and incubated for 1 hour at room temperature. Detection Reagent (0.4 nM LANCE Eu-W1024 Anti-6xHis (Perkin Elmer AD0401), 5 nM streptavidin-d^2 (Cisbio 610SADLA)) was prepared in Assay Buffer, then 4 μL was added to the plate and incubated for 1 hour at room temperature.
The mark [3] stands for this setting: Homo sapiens, ASPC1, read-out: 2 h p-ERK (AsPC-1 cells), IC50 (μM), 2 hours compound treatment.

Structures are written as SMILES. Read-outs that look alike come from different tables or passages of the source.

Usually IC50 stands for the concentration at which inhibition is half-maximal.

Sequence of His-tagged KRAS G12D protein (P01116 1-188 isoform P01116-2 G12D): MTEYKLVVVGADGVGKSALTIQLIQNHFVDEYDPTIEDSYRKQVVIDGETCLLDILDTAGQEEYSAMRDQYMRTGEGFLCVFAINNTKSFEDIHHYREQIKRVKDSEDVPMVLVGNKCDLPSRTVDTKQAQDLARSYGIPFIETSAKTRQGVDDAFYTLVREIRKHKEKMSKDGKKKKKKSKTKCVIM

For `CCc1c(F)ccc2cc(O)cc(-c3ncc4c(N5[C@@H]6CC[C@H]5COC6)nc(OC[C@@]56CCCN5C[C@H](F)C6)nc4c3F)c12` [Example 6, 4-(4-((1R,5S)-3-Oxa-8-azabicyclo[3.2.1]octan-8-yl)-8-fluoro-2-(((2R,7aS)-2-fluorotetrahydro-1H-pyrrolizin-7a(5H)-yl)methoxy)pyrido [4,3-d]pyrimidin-7-yl)-5-ethyl-6-fluoronaphthalen-2-ol], the IC50 in experiment [1] (setting [3]) was found to be 1.77 µM; in experiment [2], 69 nM.
On to `Oc1cc(-c2ncc3c(N4C[C@H]5COC[C@@H](C4)O5)nc(OC[C@@]45CCCN4C[C@H](F)C5)nc3c2F)c2c(F)c(F)ccc2c1` [Example 19, 4-(4-((1R,5S)-3,9-Dioxa-7-azabicyclo[3.3.1]nonan-7-yl)-8-fluoro-2-(((2R,7aS)-2-fluorotetrahydro-1H-pyrrolizin-7a(5H)-yl)methoxy)pyrido [4,3-d]pyrimidin-7-yl)-5,6-difluoronaphthalen-2-ol], for which the IC50 was 1.1 µM in experiment [1] (setting [3]) and 9 nM in experiment [2].
For the compound `CCc1c(F)ccc2cc(O)cc(-c3ncc4c(N5CCOC[C@H](CO)C5)nc(OC[C@@]56CCCN5C[C@H](F)C6)nc4c3F)c12` [Example 49, 5-Ethyl-6-fluoro-4-(8-fluoro-2-(((2R, 7aS)-2-fluorotetra-hydro-1H-pyrrol-izin-7a(5H)-yl)-methoxy)-4-((S)-6-(hydroxymethyl)-1,4-oxazepan-4-yl)-pyrido[4,3-d]pyr-imidin-7-yl)naph-thalen-2-ol], the IC50 in experiment [1] (read-out: 2 h p-ERK (AsPC-1 cells), IC50, 2 hours compound treatment) came out at 0.889 µM; in experiment [2], 13 nM.
For `CCc1c(F)ccc2cc(O)cc(-c3ncc4c(N5CC6COC(C5)C6O)nc(OC[C@@]56CCCN5C[C@H](F)C6)nc4c3F)c12` (relative stereo) [Example 11, 3-(7-(8-Ethyl-7-fluoro-3-hydroxynaphthalen-1-yl)-8-fluoro-2-(((2R,7aS)-2-fluorotetrahydro-1H-pyrrolizin-7a(5H)-yl)methoxy)pyrido [4,3-d]pyrimidin-4-yl)-6-oxa-3-azabicyclo[3.2.1] octan-8-ol], the IC50 in experiment [1] (setting [3]) was > 10 µM; in experiment [2] it was 39 nM.
On to `Oc1cc(Cl)c(C2CC2)c(-c2ncc3c(N4CCCOCC4)nc(OC[C@@]45CCCN4C[C@H](F)C5)nc3c2F)c1` [Example 18, 3-Chloro-4-cyclopropyl-5-(8-fluoro-2-(((2R,7aS)-2-fluorotetrahydro-1H-pyrrolizin-7a(5H)-yl)methoxy)-4-(1,4-oxazepan-4-yl)pyrido[4,3-d]pyrimidin-7-yl)phenol], for which the results for the IC50 in experiment [1] (setting [3]) and in experiment [2] were 0.162 µM and 2 nM, respectively.
On to `CCc1c(F)ccc2cc(O)cc(-c3ncc4c(N5CCCOC(CO)C5)nc(OC[C@@]56CCCN5C[C@H](F)C6)nc4c3F)c12` (single isomer, unassigned) [Example 48], for which the IC50 in experiment [1] (setting [3]) was determined as 1.05 µM; in experiment [2], 10 nM.
The like results for `CCc1c(F)ccc2cc(O)cc(-c3ncc4c(N5CCCOC(C(N)=O)C5)nc(OC[C@@]56CCCN5C[C@H](F)C6)nc4c3F)c12` (stereo partly drawn) [Example 51, 4-(7-(8-Ethyl-7-fluoro-3-hydroxy-naphthalen-1-yl)-8-fluoro-2-(((2R, 7aS)-2-fluorotetra-hydro-1H-pyrrol-zin-7a(5H)-yl)-methoxy)pyrido [4,3-d]pyrimidin-4-yl)-1,4-oxazepane-2-carboxamide] were, in that order, 6.23 µM and 6 nM.
The like results for `CCc1c(F)ccc2cc(O)cc(-c3ncc4c(N5CCOC6CC65)nc(OC[C@@]56CCCN5C[C@H](F)C6)nc4c3F)c12` (stereo partly drawn) [Example 66, 4-(4-((1R,6S)-2-oxa-5-azabicyclo[4.1.0]heptan-5-yl)-8-fluoro-2-(((2R,7aS)-2-fluorotetrahydro-1H-pyrrolizin-7a(5H)-yl)methoxy)-pyrido[4,3-d]pyrim-idin-7-yl)-5-ethyl-6-fluoronaphthalen-2-ol] were, in that order, 0.592 µM and 15 nM.
As to `CCc1c(F)ccc2cc(O)cc(-c3ncc4c(N5CCOCC(S(N)(=O)=O)C5)nc(OC[C@@]56CCCN5C[C@H](F)C6)nc4c3F)c12` (stereo partly drawn) [Example 63, 4-(7-(8-Ethyl-7-fluoro-3-hydroxy-naphthalen-1-yl)-8-fluoro-2-(((2R,7aS)-2-fluorotetrahydro-1H-pyrrolizin-7a(5H)-yl)meth-oxy)pyrido[4,3-d]pyrimidin-4-yl)-1,4-oxazepane-6-sulfonamide], the IC50 in experiment [1] (setting [3]) came out at 1.38 µM; in experiment [2], 5 nM.
Take `CCc1cccc2cc(O)cc(-c3ncc4c(N5CCCOCC5)nc(OCC5(CN6CCOCC6)CC5)nc4c3F)c12` [Example 20, 5-Ethyl-4-(8-fluoro-2-((1-(morpholinomethyl)cyclopropyl)methoxy)-4-(1,4-oxazepan-4-yl)pyrido[4,3-d]pyrimidin-7-yl)naphthalen-2-ol]: the IC50 in experiment [1] (setting [3]) is 0.336 µM; in experiment [2], 5 nM.
Consider `CCc1c(F)ccc2cc(O)cc(-c3ncc4c(N5C[C@H]6C[C@@H](C5)O6)nc(OC[C@@]56CCCN5C[C@H](F)C6)nc4c3F)c12` [Example 27, 4-(4-((1R,5S)-6-Oxa-3-azabicyclo[3.1.1]heptan-3-yl)-8-fluoro-2-(((2R,7aS)-2-fluorotetrahydro-1H-pyrrolizin-7a(5H)-yl)methoxy)pyrido [4,3-d]pyrimidin-7-yl)-5-ethyl-6-fluoronaphthalen-2-ol], for which the values for the IC50 in experiment [1] (setting [3]) and in experiment [2] were 2.28 µM and 62 nM, respectively.
Turning to `CN1C[C@H](F)C[C@H]1COc1nc(N2CCCOCC2)c2cnc(-c3cc(O)cc4ccc(F)c(F)c34)c(F)c2n1` [Example 8, 5,6-Difluoro-4-(8-fluoro-2-(((2S,4R)-4-fluoro-1-methylpyrrolidin-2-yl)methoxy)-4-(1,4-oxazepan-4-yl)pyrido[4,3-d]pyrimidin-7-yl)naphthalen-2-ol], the IC50 turned out to be 0.103 µM in experiment [1] (setting [3]) and 5 nM in experiment [2].
For the compound `CCc1c(F)ccc2cc(O)cc(-c3ncc4c(N5CCCS(=O)(=O)C5)nc(OC[C@@]56CCCN5C[C@H](F)C6)nc4c3F)c12` [Example 62, 3-(7-(8-Ethyl-7-fluoro-3-hydroxy-naphthalen-1-yl)-8-fluoro-2-(((2R,7aS)-2-fluorotetrahydro-1H-pyrrolizin-7a(5H)-yl)meth-oxy)pyrido[4,3-d]pyrimidin-4-yl)-1,3-thiazinane 1,1-dioxide], the IC50 in experiment [1] (setting [3]) came out at 0.07 µM; in experiment [2], 1 nM.
`CCc1c(F)ccc2cc(O)cc(-c3ncc4c(N5CCO[C@@H](COC)C5)nc(OC[C@@]56CCCN5C[C@H](F)C6)nc4c3F)c12` [Example 53, 5-Ethyl-6-fluoro-4-(8-fluoro-2-(((2R, 7aS)-2-fluorotetra-hydro-1H-pyrrol-izin-7a(5H)-yl)-methoxy)-4-((R)-2-(methoxymeth-yl)morpholino)pyr-ido[4,3-d]pyrimi-din-7-yl)naph-thalen-2-ol]: the IC50 in experiment [1] (setting [3]) stood at 1.24 µM; in experiment [2], 39 nM.
With `CCc1c(F)ccc2cc(O)cc(-c3ncc4c(N5CCCS(=N)(=O)CC5)nc(OC[C@@]56CCCN5C[C@H](F)C6)nc4c3F)c12` (stereo partly drawn) [Example 38, 4-(7-(8-Ethyl-7-fluoro-3-hydroxynaphthalen-1-yl)-8-fluoro-2-(((2R,7aS)-2-fluorotetrahydro-1H-pyrrolizin-7a(5H)-yl)methoxy)pyrido[4,3-d]pyrimidin-4-yl)-1-imino-1 λ^6,4-thiazepane 1-oxide], the IC50 in experiment [1] (setting [3]) is > 10 µM; in experiment [2], 21 nM.
As for `CCc1c(F)ccc2cc(O)cc(-c3ncc4c(N5C[C@@H]6CC[C@@H]5CO6)nc(OC[C@@]56CCCN5C[C@H](F)C6)nc4c3F)c12` [Example 28, 4-(4-((1S,4R)-2-Oxa-5-azabicyclo[2.2.2]octan-5-yl)-8-fluoro-2-(((2R,7aS)-2-fluorotetrahydro-1H-pyrrolizin-7a(5H)-yl)methoxy)pyrido [4,3-d]pyrimidin-7-yl)-5-ethyl-6-fluoronaphthalen-2-ol], the figures for the IC50 in experiment [1] (setting [3]) and in experiment [2] were 1.77 µM and 79 nM, respectively.
For `CCc1cccc2cc(O)cc(-c3ncc4c(N5C[C@H]6COC[C@@H](C5)O6)nc(OC[C@@]56CCCN5C[C@H](F)C6)nc4c3F)c12` [Example 23, 4-(4-((1R,5S)-3,9-Dioxa-7-azabicyclo[3.3.1]nonan-7-yl)-8-fluoro-2-(((2R,7aS)-2-fluorotetrahydro-1H-pyrrolizin-7a(5H)-yl)methoxy)pyrido [4,3-d]pyrimidin-7-yl)-5-ethylnaphthalen-2-ol], in that order: 1.15 µM and 29 nM.
For `CCc1c(F)ccc2cc(O)cc(-c3ncc4c(N5CCCOCC5)nc(OC[C@@H]5C[C@@H](F)CN5C)nc4c3F)c12` [Example 9, 5-Ethyl-6-fluoro-4-(8-fluoro-2-(((2S,4R)-4-fluoro-1-methylpyrrolidin-2-yl)methoxy)-4-(1,4-oxazepan-4-yl)pyrido[4,3-d]pyrimidin-7-yl)naphthalen-2-ol], the values for the IC50 in experiment [1] (setting [3]) and in experiment [2] were 0.353 µM and 8 nM, respectively.
As to `CCc1c(F)ccc2cc(O)cc(-c3ncc4c(N5CCOCC(O)(CC)C5)nc(OC[C@@]56CCCN5C[C@H](F)C6)nc4c3F)c12` (stereo partly drawn) [Example 73, 6-Ethyl-4-(7-(8-ethyl-7-fluoro-3-hydroxynaphthalen-1-yl)-8-fluoro-2-(((2R,7aS)-2-fluorotetrahydro-1H-pyrrolizin-7a(5H)-yl)methoxy)pyrido[4,3-d]pyrimidin-4-yl)-1,4-oxazepan-6-ol], the concentration for half-maximal inhibition (IC50) in experiment [1] (setting [3]) came out at 0.063 µM; in experiment [2], 3 nM.
Consider `CCc1c(F)ccc2cc(O)cc(-c3ncc4c(N5CCOC[C@@](C)(O)C5)nc(OC[C@@]56CCCN5C[C@H](F)C6)nc4c3Cl)c12` (single isomer, unassigned) [Example 80], for which the concentration for half-maximal inhibition (IC50) in experiment [1] (setting [3]) was found to be 0.024 µM; in experiment [2] it was 4 nM.
